Laboratory results as given in patent publication US20230012936A1, “COMBINATION THERAPY USING GLUCAGON AND GLP-1 CO-AGONISTS FOR THE TREATMENT OF OBESITY” (MEDIMMUNE, LLC, priority 2019, published 2023).

Assays:
Assay type in all cases: in vivo, human
[1] = system: overweight/obese subjects with Type 2 Diabetes Mellitus (T2DM); test: 24-hour glucose urine excretion; conditions: Day 28
Description: Changes in 24-hour glucose urine excretion from baseline to Day 28 were assessed. At baseline, subjects in the cotadutide group had less urine glucose excretion compared with subjects in the placebo group (4552.85 vs 9107.06 mg/24 hr, respectively).

[2] = system: overweight/obese subjects with Type 2 Diabetes Mellitus (T2DM); test: Pancreatic and incretin hormone profiles during the MMTT
Description: Subjects were admitted to the unit on Day −2 and on Day 27. On Day −1 and on Day 28, following a minimum 10 hour fast, a blood sample for glucose metabolism panel (glucose, insulin, C-peptide, glucagon, and active GLP-1) was taken immediately prior to the subject drinking a standardized mixed meal (t=“0 minutes”). The subject then consumed a can of Ensure Plus, which is a nutritional supplement containing the components of fat, carbohydrate, and protein that make up a standard mixed-meal tolerance test (MMTT). After the meal, timed, serial blood samples were obtained for measurement of glucose and parameters related to glucose metabolism (with no additional food intake during this time). The MMTT was performed on Day-1 and Day 28.
Blood samples for the glucose metabolism panel were drawn at t=“0 minutes” (before meal) and at 15, 30, 45, 60, 90, 120, 180, and 240 minutes (±5 minutes) after consumption of the standardized meal. Additional sampling for glucagon, insulin, C-peptide, and glucose was taken at 6, 8, 12, and 24 hours (±30 minutes) post-administration (t=“0 minutes”) of the standardized meal on Day −1 and 28.
The change and percent change from baseline (Day-1) to the end of the 28 days of treatment (Day 28) in glucose AUC0-4 h were determined as measured by the MMTT. In addition, the change from baseline (Day −1) to Day 28 in active GLP-1, glucagon, insulin, and C-peptide AUC0-4 h were also measured by MMTT.
The changes in insulin and C-peptide AUC004h from baseline to Day 28 were assessed. At baseline, the mean insulin AUC0-4 h was higher in the cotadutide group compared with the placebo group (91.768 vs 78.472 hr·mU/L, respectively). There was no meaningful difference from baseline in LS mean insulin AUC0-4 h at Day 28 between the cotadutide and placebo groups (−0.08 and 2.78 hr·mU/L, respectively; LS mean difference: −2.86 hr·mU/L; p=0.7760). At baseline, the mean C-peptide AUC0-4 h was similar in the cotadutide and placebo groups (11.278 vs 10.605 hr. μg/L, respectively). There was no meaningful difference from baseline in LS mean C-peptide AUC0-4 h at Day 28 between the cotadutide and placebo groups (0.32 and −0.29 hr. μg/L, respectively (LS mean difference: […]; p=0.4345).

[3] = system: overweight/obese subjects with Type 2 Diabetes Mellitus (T2DM); test: Fasting plasma glucose (FPG), Phase 2a study
Description: The change in fasting plasma glucose (FPG) from baseline to Day 28 was assessed.

[4] = Body weight, Phase 2a study
Description: Body weight was measured during the screening period, at the start of the run—in period (Day −28), and prior to breakfast on Day 1 (predose) and Day 29. The subject should have taken off their shoes and remove bulky clothing. Calibrated scales were used.
The change and percent change in body weight from baseline (Day 1) to Day 29 (kg) were determined. The proportion of subjects achieving>5% body weight loss from baseline (Day 1) to Day 29 was also determined.

[5] = system: overweight/obese subjects with Type 2 Diabetes Mellitus (T2DM); test: Fasting free fatty acid (FFA) levels; conditions: Day 28 (300 μg); vs placebo
Description: The changes in fasting free fatty acid (FFA) from baseline to the end of each dose level were assessed. Fasting FFA changes from baseline to Day 7 (100 μg), Day 14 (200 μg), or Day 28 (300 μg) were similar between treatment groups (LS mean difference at Day 28: −0.04 mEq/L; p=0.5322).

## CCCCCCCCCCCCCCCC(=O)N[C@@H](CCC(=O)NCCCC[C@H](NC(=O)[C@H](CC(=O)O)NC(=O)[C@H](CO)NC(=O)[C@@H](NC(=O)[C@H](Cc1ccccc1)NC(=O)[C@@H](NC(=O)CNC(=O)[C@H](CCC(N)=O)NC(=O)[C@H](CO)NC(=O)[C@@H](N)Cc1c[nH]cn1)[C@@H](C)O)[C@@H](C)O)C(=O)N[C@@H](CO)C(=O)N[C@@H](CCC(=O)O)C(=O)N[C@@H](Cc1ccc(O)cc1)C(=O)N[C@@H](CC(C)C)C(=O)N[C@@H](CC(=O)O)C(=O)N[C@@H](CO)C(=O)N[C@@H](CCC(=O)O)C(=O)N[C@@H](CCCNC(=N)N)C(=O)N[C@@H](C)C(=O)N[C@@H](CCCNC(=N)N)C(=O)N[C@@H](CC(=O)O)C(=O)N[C@@H](Cc1ccccc1)C(=O)N[C@H](C(=O)N[C@@H](C)C(=O)N[C@@H](Cc1c[nH]c2ccccc12)C(=O)N[C@@H](CC(C)C)C(=O)N[C@@H](CCC(=O)O)C(=O)N[C@@H](C)C(=O)NCC(=O)NCC(=O)O)C(C)C)C(=O)O [Cotadutide]
[1]
  24-hour glucose urine excretion, change from baseline, LS mean: −643.46 mg/24h
[1]; vs placebo
  24-hour glucose urine excretion, change from baseline, LS mean difference: 921.26 mg/24h
[2]; Day 28
  C-peptide AUC0-4 h, change from baseline, LS mean: 0.32 µg·h/L
  GLP-1 (active form) AUC0-4 h, change from baseline, LS mean: -131.67 ng·h/L
  Glucagon AUC0-4 h, change from baseline, LS mean: -12.52 ng·h/L
  Insulin AUC0-4 h, change from baseline, LS mean: −0.08 hr·mU/L
[2]; Day 28, vs placebo
  GLP-1 (active form) AUC0-4 h, change from baseline, LS mean difference: -0.73 ng·h/L
  Glucagon AUC0-4 h, change from baseline, LS mean difference: 11.3 ng·h/L
  Insulin AUC0-4 h, change from baseline, LS mean difference: −2.86 hr·mU/L
[3]; Day 28 (LOCF), ITT
  Fasting plasma glucose, Day 28 (LOCF), mean: 115.33 mg/dL
  Fasting plasma glucose, Day 28 (LOCF), median: 106.32 mg/dL
[3]; baseline to Day 28
  Fasting plasma glucose, change from baseline (LOCF), mean: -34.24 mg/dL
  Fasting plasma glucose, change from baseline (LOCF), median: -43.25 mg/dL
[3]; baseline to Day 28, ANCOVA
  Fasting plasma glucose, change from baseline (LOCF), LS mean: -34.15 mg/dL
[3]; baseline to Day 28, vs placebo
  Fasting plasma glucose, change from baseline (LOCF), LS mean difference: -37.73 mg/dL
[4]; baseline (Day 1) to Day 29
  Body weight, Day 29 change from baseline, mean: -3.06 kg
  Body weight, Day 29 change from baseline, median: -2.85 kg
  Body weight, Day 29 percent change from baseline, mean: −3.30%
  Body weight, Day 29 percent change from baseline, median: −3.14%
[4]; baseline to Day 29, 3 subjects
  Proportion of subjects achieving >5% body weight loss: 12.5%
[4]; baseline to Day 29, ANCOVA
  Body weight, Day 29 change from baseline, LS mean: -3.16 kg
  Body weight, Day 29 percent change from baseline, LS mean: −3.33%
[4]; baseline to Day 29, vs placebo
  Body weight, Day 29 change from baseline, LS mean difference: -2.13 kg
  Body weight, Day 29 percent change from baseline, LS mean difference: −2.26%
[5]
  Fasting FFA change from baseline, LS mean difference: −0.04 mEq/L
